Test results taken from PubChem BioAssay (NCI).
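Protocol summary: plate cells (96-well), add compound at 5 concentrations, incubate 48 h, interpolate endpoints linearly. Definition used: TGI = concentration required for complete inhibition of growth.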

What was measured:
Assay in all cases: DTP human tumour cell line panel, 48 h
786-0 renal = tested on: 786-0 renal
A549 NSCLC = tested on: A549 NSCLC
ACHN renal = tested on: ACHN renal
CAKI-1 renal = tested on: CAKI-1 renal
CCRF-CEM leukemia = tested on: CCRF-CEM leukemia
COLO 205 colon = tested on: COLO 205 colon
DLD-1 colon = tested on: DLD-1 colon
DMS 114 small cell lung = tested on: DMS 114 small cell lung
EKVX NSCLC = tested on: EKVX NSCLC
HCC-2998 colon = tested on: HCC-2998 colon
HCT-116 colon = tested on: HCT-116 colon
HL-60(TB) leukemia = tested on: HL-60(TB) leukemia
HOP-62 NSCLC = tested on: HOP-62 NSCLC
HOP-92 NSCLC = tested on: HOP-92 NSCLC
HT29 colon = tested on: HT29 colon
IGROV1 ovarian = tested on: IGROV1 ovarian
K-562 leukemia = tested on: K-562 leukemia
KM12 colon = tested on: KM12 colon
KM20L2 colon = tested on: KM20L2 colon
LOX IMVI melanoma = tested on: LOX IMVI melanoma
LXFL 529 NSCLC = tested on: LXFL 529 NSCLC
M14 melanoma = tested on: M14 melanoma
M19-MEL melanoma = tested on: M19-MEL melanoma
MALME-3M melanoma = tested on: MALME-3M melanoma
MOLT-4 leukemia = tested on: MOLT-4 leukemia
NCI-H226 lung = tested on: NCI-H226 lung
NCI-H23 lung = tested on: NCI-H23 lung
NCI-H460 lung = tested on: NCI-H460 lung
NCI-H522 lung = tested on: NCI-H522 lung
OVCAR-3 ovarian = tested on: OVCAR-3 ovarian
OVCAR-4 ovarian = tested on: OVCAR-4 ovarian
OVCAR-5 ovarian = tested on: OVCAR-5 ovarian
OVCAR-8 ovarian = tested on: OVCAR-8 ovarian
RPMI-8226 leukemia = tested on: RPMI-8226 leukemia
RXF 393 renal = tested on: RXF 393 renal
SF-268 CNS = tested on: SF-268 CNS
SF-295 CNS = tested on: SF-295 CNS
SF-539 CNS = tested on: SF-539 CNS
SK-MEL-2 melanoma = tested on: SK-MEL-2 melanoma
SK-MEL-28 melanoma = tested on: SK-MEL-28 melanoma
SK-MEL-5 melanoma = tested on: SK-MEL-5 melanoma
SK-OV-3 ovarian = tested on: SK-OV-3 ovarian
SN12C renal = tested on: SN12C renal
SNB-19 CNS = tested on: SNB-19 CNS
SNB-75 CNS = tested on: SNB-75 CNS
SNB-78 CNS = tested on: SNB-78 CNS
SW-620 colon = tested on: SW-620 colon
TK-10 renal = tested on: TK-10 renal
U251 CNS = tested on: U251 CNS
UACC-257 melanoma = tested on: UACC-257 melanoma
UO-31 renal = tested on: UO-31 renal
XF 498 CNS = tested on: XF 498 CNS

## CCc1ccccc1NC(=O)C1=C(C)NC(C)=C(C(=O)Nc2c(CC)cccc2CC)C1c1ccc2c(c1)OCO2 (configuration not stated)
786-0 renal
  TGI: 34.8 µM
A549 NSCLC
  TGI: 39.2 µM
ACHN renal
  TGI: 35.1 µM
CAKI-1 renal
  TGI: 39.7 µM
CCRF-CEM leukemia
  TGI: 51.4 µM
COLO 205 colon
  TGI: 44.1 µM
DLD-1 colon
  TGI: 51.3 µM
DMS 114 small cell lung
  TGI: 53.5 µM
EKVX NSCLC
  TGI: 69.4 µM
HCC-2998 colon
  TGI: 30.2 µM
HCT-116 colon
  TGI: 30.6 µM
HL-60(TB) leukemia
  TGI: 58.4 µM
HOP-62 NSCLC
  TGI: 35 µM
HOP-92 NSCLC
  TGI: 36.4 µM
HT29 colon
  TGI: 32.2 µM
IGROV1 ovarian
  TGI: 94.7 µM
K-562 leukemia
  TGI: 58.7 µM
KM12 colon
  TGI: 30.5 µM
KM20L2 colon
  TGI: 39.3 µM
LOX IMVI melanoma
  TGI: 35.1 µM
LXFL 529 NSCLC
  TGI: 33 µM
M14 melanoma
  TGI: 33.5 µM
M19-MEL melanoma
  TGI: 54.7 µM
MALME-3M melanoma
  TGI: 32.5 µM
MOLT-4 leukemia
  TGI: 57.5 µM
NCI-H226 lung
  TGI: 43.4 µM
NCI-H23 lung
  TGI: 31.2 µM
NCI-H460 lung
  TGI: 33.8 µM
NCI-H522 lung
  TGI: 30.9 µM
OVCAR-3 ovarian
  TGI: 38.4 µM
OVCAR-4 ovarian
  TGI: 35.9 µM
OVCAR-5 ovarian
  TGI: 36.1 µM
OVCAR-8 ovarian
  TGI: 84.5 µM
RPMI-8226 leukemia
  TGI: 41.3 µM
RXF 393 renal
  TGI: 25.4 µM
SF-268 CNS
  TGI: 57.6 µM
SF-295 CNS
  TGI: 48.5 µM
SF-539 CNS
  TGI: 40.4 µM
SK-MEL-2 melanoma
  TGI: 29.5 µM
SK-MEL-28 melanoma
  TGI: 36.6 µM
SK-MEL-5 melanoma
  TGI: 28.5 µM
SK-OV-3 ovarian
  TGI: > 100 µM
SN12C renal
  TGI: 74.3 µM
SNB-19 CNS
  TGI: 76.6 µM
SNB-75 CNS
  TGI: > 100 µM
SNB-78 CNS
  TGI: 81.7 µM
SW-620 colon
  TGI: 43.2 µM
TK-10 renal
  TGI: 53.5 µM
U251 CNS
  TGI: 30 µM
UACC-257 melanoma
  TGI: 35.4 µM
UO-31 renal
  TGI: 29.8 µM
XF 498 CNS
  TGI: 47.5 µM
